Entries after “also recorded” stand apart in the source; their conditions may differ.
Key:
[1] = test system: 12-O-tetradecanoylphorbol-13-acetate (TPA) induced mouse ear inflammation; experiment: acute TPA induced mouse ear inflammation model (Example 111); type: in vivo, female BALB/ca mice; settings: vs vehicle
Source text: This was done by comparing a high dose, corresponding to Emax (the maximal obtainable effect representing the plateau of the dose-response curve) with the individual effects of the molar amount present of each component of the complex. If the effect of the complex is higher than the sum of the components the effect is synergistic. […] The positive control used in this study was betamethasone 17-valerate applied as a commercial preparation with maximum human dose (Celeston® Cutaneous Solution 0.1%, Shering-Plough).
The test substances were administered 20 minutes before and 20 minutes after application of TPA to the ear.
All groups were treated with 20 μl TPA solution 400 μg/ml in acetone, on the right ear.
Three hours after the TPA application the mice were sacrificed, the ears cut from the tip with a punch biopsy knife (8 mm diameter) and weighed.
Differences in relative ear oedema between the vehicle treated group and the other groups were tested for significance employing a non-parametric statistical method of analysis, the Mann-Whitney U test. The required level of significance was p<0.05.

Epidermophyton floccosum = experiment: antimicrobial MIC test (Example 113); type: cell-based; settings: 1 to 4 days culture; initial test concentration 3 mM in 1% DMSO and dilutions
Protocol: (§1) Test substance or vehicle is added to test wells containing the selected microorganisms (1×10^4 to 5×10^5 CFU/ml)in cultures grown under controlled conditions. The final innoculum concentration is determined by reference to a standard optical density curve and adjusted as required. After 1 to 4 days, growth of the culture is examined and scored positive (+) for inhibition of growth or turbidity, or negative (−) for no effect upon growth or turbidity. An initial test concentration of 3 mM in 1% DMSO is used and dilutions are tested to establish the minimal inhibitory concentration (MIC).

Microsporum canis = experiment: antimicrobial MIC test (Example 113); type: cell-based; settings: 1 to 4 days culture; initial test concentration 3 mM in 1% DMSO and dilutions
Protocol: as §1

Trichophyton rubrum = experiment: antimicrobial MIC test (Example 113); type: cell-based; settings: 1 to 4 days culture; initial test concentration 3 mM in 1% DMSO and dilutions
Protocol: as §1

Streptococcus faecalis = experiment: antimicrobial MIC test (Example 113); type: cell-based; settings: 1 to 4 days culture; initial test concentration 3 mM in 1% DMSO and dilutions
Protocol: as §1

Candida albicans = experiment: antimicrobial MIC test (Example 113); type: cell-based; settings: 1 to 4 days culture; initial test concentration 3 mM in 1% DMSO and dilutions
Protocol: as §1

[2] = test system: sub-chronic TPA induced mouse ear inflammation; experiment: sub-chronic TPA (repeated application) mouse ear inflammation model (Example 112); type: in vivo, female BALB/ca mice
Protocol: Investigation of two complexes according to the invention in a recognized pharmacodynamic model of sub-chronic inflammation.
The objective of this study was to assess the therapeutic value of the complexes of the invention in a very demanding pharmacodynamic model of dermal inflammation. Repeated application of TPA to the ears of the mice within 48 hours yields an inflammatory lesion with infiltration of leukocytes and persistent swelling. The reapplication of TPA ([…]) after 48 hours produces an inflammation and ear oedema, which is more dramatic due to the involvement and activation of a vast number of inflammatory cells. Therefore the model is suitable for drug evaluation in relation to more aggravated or chronic inflammatory conditions. The test substance for evaluation is co-applied with the second TPA application. […]
Mean weights and standard deviations were calculated. Relative ear oedema was assessed as the weight difference between right and left ear of each mouse expressed as percent of the left ear. Percent inhibition of the relative ear oedema compared with the vehicle treated groups was calculated for the test substance and positive control treated group. […]

**Q.** Which “% Inhibition of relative ear oedema” value ([1]; 64.1 μmol/ear, given 20 min before and 20 min after TPA, ears weighed 3 h after TPA) does the source give for NC(=O)c1cccnc1 [Niacinamide] here?
**A.** Its value is 18%.

**Q.** With CCCCCCCC(=O)OCC(O)CO (racemic) [Rac-1-glyceryl-monocaprylate] as the compound, how does the MIC (Epidermophyton floccosum) read?
**A.** The MIC was “Not active at tested”.

**Q.** What about the MIC (Microsporum canis) of the same compound?
**A.** The MIC was “Not active at tested”.

**Q.** And the MIC (Trichophyton rubrum)?
**A.** The MIC was “Not active at tested”.

**Q.** And the MIC (Streptococcus faecalis)?
**A.** Its MIC is “Not active at tested”.

**Q.** And the MIC (Candida albicans)?
**A.** Its MIC is “Not active at tested”.

**Q.** And the “% Inhibition of relative ear oedema” value ([1]; 4.58 μmol/ear, given 20 min before and 20 min after TPA, ears weighed 3 h after TPA)?
**A.** Its value is 22%.

**Q.** CCCCC(=O)O[C@]1(C(=O)CO)[C@@H](C)C[C@H]2[C@@H]3CCC4=CC(=O)C=C[C@]4(C)[C@@]3(F)[C@@H](O)C[C@@]21C [Betamethasone 17-valerate] was tested. Which “% Inhibition of relative ear oedema” value ([2]; 0.02 mg/ear, 20 min before and after TPA re-application at 48 h, 3 h after TPA, vs vehicle) did it give?
**A.** The value was 31%.

**Q.** What about the “% Inhibition of relative ear oedema” value ([1]; 0.02 mg/ear (Celeston Cutaneous Solution 0.1%), 20 min before and after TPA, 3 h after TPA) of the same compound?
**A.** Its value is 66%.

**Q.** C[C@]12CCC(=O)C=C1CC[C@@H]1[C@@H]2[C@@H](O)C[C@@]2(C)[C@H]1CC[C@]2(O)C(=O)CO [hydrocortisone] was tested. Which “effect in the sub-chronic TPA model” value ([2]; observation of the inventor on mild steroids) did it give?
**A.** Its value is “no effect; also recorded: no measurable effects”.
